Reference: PubChem BioAssay (NCI)
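Here, GI50 denotes the concentration required for 50% inhibition of growth. TGI denotes the concentration required for complete inhibition of growth.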

Columns and labels:
Assay in all cases: NCI-60 cell line screen, 384-well format
COLO 205 colon = tested on: COLO 205 colon
SR leukemia = tested on: SR leukemia
OVCAR-8 ovarian = tested on: OVCAR-8 ovarian
DU-145 prostate = tested on: DU-145 prostate
HOP-92 NSCLC = tested on: HOP-92 NSCLC
KM12 colon = tested on: KM12 colon
NCI-H23 lung = tested on: NCI-H23 lung
SN12C renal = tested on: SN12C renal
MCF7 breast = tested on: MCF7 breast
786-0 renal = tested on: 786-0 renal
RXF 393 renal = tested on: RXF 393 renal
UACC-257 melanoma = tested on: UACC-257 melanoma
EKVX NSCLC = tested on: EKVX NSCLC
T-47D breast = tested on: T-47D breast
HS 578T breast = tested on: HS 578T breast
NCI-H226 lung = tested on: NCI-H226 lung
OVCAR-4 ovarian = tested on: OVCAR-4 ovarian
SK-OV-3 ovarian = tested on: SK-OV-3 ovarian
A549 NSCLC = tested on: A549 NSCLC
SW-620 colon = tested on: SW-620 colon
M14 melanoma = tested on: M14 melanoma
OVCAR-5 ovarian = tested on: OVCAR-5 ovarian
K-562 leukemia = tested on: K-562 leukemia
HT29 colon = tested on: HT29 colon
NCI-H460 NSCLC = tested on: NCI-H460 NSCLC
ACHN renal = tested on: ACHN renal
PC-3 prostate = tested on: PC-3 prostate
SNB-19 CNS = tested on: SNB-19 CNS
CCRF-CEM leukemia = tested on: CCRF-CEM leukemia
UO-31 renal = tested on: UO-31 renal
HOP-62 NSCLC = tested on: HOP-62 NSCLC
CAKI-1 renal = tested on: CAKI-1 renal
TK-10 renal = tested on: TK-10 renal
U251 glioblastoma = tested on: U251 glioblastoma
MOLT-4 leukemia = tested on: MOLT-4 leukemia
SF-539 CNS = tested on: SF-539 CNS
NCI/ADR-RES ovarian = tested on: NCI/ADR-RES ovarian
SF-268 CNS = tested on: SF-268 CNS
HL-60(TB) leukemia = tested on: HL-60(TB) leukemia
A498 renal = tested on: A498 renal
SF-295 CNS = tested on: SF-295 CNS
MDA-MB-231 breast = tested on: MDA-MB-231 breast
SNB-75 CNS = tested on: SNB-75 CNS
IGROV1 ovarian = tested on: IGROV1 ovarian
OVCAR-3 ovarian = tested on: OVCAR-3 ovarian
HCT-15 colon = tested on: HCT-15 colon
HCT-116 colon = tested on: HCT-116 colon
LOX IMVI melanoma = tested on: LOX IMVI melanoma
BT-549 breast = tested on: BT-549 breast
MALME-3M melanoma = tested on: MALME-3M melanoma
RPMI-8226 leukemia = tested on: RPMI-8226 leukemia
NCI-H322M lung = tested on: NCI-H322M lung
MDA-MB-468 breast = tested on: MDA-MB-468 breast
NCI-H522 lung = tested on: NCI-H522 lung
SK-MEL-28 melanoma = tested on: SK-MEL-28 melanoma
HCC-2998 colon = tested on: HCC-2998 colon
SK-MEL-5 melanoma = tested on: SK-MEL-5 melanoma
MDA-MB-435 melanoma = tested on: MDA-MB-435 melanoma

Compound COc1ccc2c(c[n+](C)c3c4cc5c(cc4ccc23)OCO5)c1OC has a GI50 (COLO 205 colon) of 1.57 µM, a TGI (COLO 205 colon) of 2.92 µM and a GI50 (SR leukemia) of 0.174 µM. It also gave a TGI (SR leukemia) of 0.317 µM, a GI50 (OVCAR-8 ovarian) of 0.395 µM and a TGI (OVCAR-8 ovarian) of 1.43 µM. For the same compound, the GI50 (DU-145 prostate) was 1.46 µM, the TGI (DU-145 prostate) was 2.77 µM and the GI50 (HOP-92 NSCLC) was 1.51 µM. The TGI (HOP-92 NSCLC) was 2.85 µM, the GI50 (KM12 colon) was 1.47 µM and the TGI (KM12 colon) was 2.8 µM. It also gave a GI50 (NCI-H23 lung) of 1 µM, a TGI (NCI-H23 lung) of 2.16 µM and a GI50 (SN12C renal) of 0.615 µM. It also gave a TGI (SN12C renal) of 1.89 µM, a GI50 (MCF7 breast) of 1.13 µM and a TGI (MCF7 breast) of 2.35 µM. The GI50 ([…]-0 renal) was 1.34 µM, the TGI (786-0 renal) was 2.63 µM and the GI50 (RXF 393 renal) was 1.57 µM. The TGI (RXF 393 renal) was 2.94 µM, the GI50 (UACC-257 melanoma) was 1.23 µM and the TGI (UACC-257 melanoma) was 2.48 µM. For the same compound, the GI50 (EKVX NSCLC) was 1.45 µM, the TGI (EKVX NSCLC) was 2.76 µM and the GI50 (T-47D breast) was 1.63 µM. For the same compound, the TGI (T-47D breast) was 2.99 µM, the GI50 (HS 578T breast) was 1.55 µM and the TGI (HS 578T breast) was 2.89 µM. For the same compound, the GI50 (NCI-H226 lung) was 1.83 µM, the TGI (NCI-H226 lung) was 3.22 µM and the GI50 (OVCAR-4 ovarian) was 1.5 µM. For the same compound, the TGI (OVCAR-4 ovarian) was 2.87 µM, the GI50 (SK-OV-3 ovarian) was 1.71 µM and the TGI (SK-OV-3 ovarian) was 3.13 µM. For the same compound, the GI50 (A549 NSCLC) was 1.83 µM, the TGI (A549 NSCLC) was 3.27 µM and the GI50 (SW-620 colon) was 0.267 µM. The TGI (SW-620 colon) was 0.758 µM, the GI50 (M14 melanoma) was 1.59 µM and the TGI (M14 melanoma) was 2.94 µM. It also gave a GI50 (OVCAR-5 ovarian) of 1.76 µM, a TGI (OVCAR-5 ovarian) of 3.16 µM and a GI50 (K-562 leukemia) of 1.61 µM. For the same compound, the TGI (K-562 leukemia) was 2.97 µM, the GI50 (HT29 colon) was 1.68 µM and the TGI (HT29 colon) was 3.05 µM. The GI50 (NCI-H460 NSCLC) was 1.52 µM, the TGI (NCI-H460 NSCLC) was 2.85 µM and the GI50 (ACHN renal) was 1.82 µM. The TGI (ACHN renal) was 3.21 µM, the GI50 (PC-3 prostate) was 1.19 µM and the TGI (PC-3 prostate) was 2.42 µM. For the same compound, the GI50 (SNB-19 CNS) was 1.5 µM, the TGI (SNB-19 CNS) was 2.84 µM and the GI50 (CCRF-CEM leukemia) was 0.146 µM. The TGI (CCRF-CEM leukemia) was 0.278 µM, the GI50 (UO-31 renal) was 1.4 µM and the TGI (UO-31 renal) was 2.7 µM. The GI50 (HOP-62 NSCLC) was 1.06 µM, the TGI (HOP-62 NSCLC) was 2.25 µM and the GI50 (CAKI-1 renal) was 1.27 µM. The TGI (CAKI-1 renal) was 2.56 µM, the GI50 (TK-10 renal) was 1.42 µM and the TGI (TK-10 renal) was 2.73 µM. The GI50 (U251 glioblastoma) was 0.866 µM, the TGI (U251 glioblastoma) was 2.08 µM and the GI50 (MOLT-4 leukemia) was 0.163 µM. It also gave a TGI (MOLT-4 leukemia) of 0.3 µM, a GI50 (SF-539 CNS) of 1.63 µM and a TGI (SF-539 CNS) of 2.99 µM. The GI50 (NCI/ADR-RES ovarian) was 1.02 µM, the TGI (NCI/ADR-RES ovarian) was 2.59 µM and the GI50 (SF-268 CNS) was 1.34 µM. The TGI (SF-268 CNS) was 2.62 µM, the GI50 (HL-60(TB) leukemia) was 0.182 µM and the TGI (HL-60(TB) leukemia) was 0.324 µM. For the same compound, the GI50 (A498 renal) was 1.87 µM, the TGI (A498 renal) was 3.39 µM and the GI50 (SF-295 CNS) was 1.74 µM. It also gave a TGI (SF-295 CNS) of 3.15 µM, a GI50 (MDA-MB-231 breast) of 0.721 µM and a TGI (MDA-MB-231 breast) of 1.99 µM. For the same compound, the GI50 (SNB-75 CNS) was 1.64 µM, the TGI (SNB-75 CNS) was 3 µM and the GI50 (IGROV1 ovarian) was 1.62 µM. For the same compound, the TGI (IGROV1 ovarian) was 2.97 µM, the GI50 (OVCAR-3 ovarian) was 0.362 µM and the TGI (OVCAR-3 ovarian) was 1.33 µM. The GI50 (HCT-15 colon) was 0.825 µM, the TGI (HCT-15 colon) was 2.07 µM and the GI50 (HCT-116 colon) was 0.399 µM. For the same compound, the TGI (HCT-116 colon) was 1.38 µM, the GI50 (LOX IMVI melanoma) was 1.1 µM and the TGI (LOX IMVI melanoma) was 2.31 µM. It also gave a GI50 (BT-549 breast) of 0.68 µM, a TGI (BT-549 breast) of 1.94 µM and a GI50 (MALME-3M melanoma) of 0.748 µM. The TGI (MALME-3M melanoma) was 1.96 µM, the GI50 (RPMI-8226 leukemia) was 0.44 µM and the TGI (RPMI-8226 leukemia) was 1.46 µM. For the same compound, the GI50 (NCI-H322M lung) was 1.77 µM, the TGI (NCI-H322M lung) was 3.19 µM and the GI50 (MDA-MB-468 breast) was 0.365 µM. It also gave a TGI (MDA-MB-468 breast) of 1.36 µM, a GI50 (NCI-H522 lung) of 1.44 µM and a TGI (NCI-H522 lung) of 2.75 µM. The GI50 (SK-MEL-28 melanoma) was 1.9 µM, the TGI (SK-MEL-28 melanoma) was 3.35 µM and the GI50 (HCC-2998 colon) was 1.59 µM. It also gave a TGI (HCC-2998 colon) of 2.94 µM, a GI50 (SK-MEL-5 melanoma) of 0.72 µM and a TGI (SK-MEL-5 melanoma) of 2.04 µM. For the same compound, the GI50 (MDA-MB-435 melanoma) was 1.63 µM and the TGI (MDA-MB-435 melanoma) was 2.99 µM.
